Source: the supplement of paper PMC10307832

Tests used:
Test in all cases: relative viability (nuclei count vs DMSO), 5 days (fraction); higher = more cells survive
Adavosertib + Alpelisib = compound: C=CCn1c(=O)c2cnc(Nc3ccc(N4CCN(C)CC4)cc3)nc2n1-c1cccc(C(C)(C)O)n1 [Adavosertib] + Cc1nc(NC(=O)N2CCC[C@H]2C(N)=O)sc1-c1ccnc(C(C)(C)C(F)(F)F)c1 [Alpelisib] (partner 2 µM)
In short: (§1)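 Cells from lung cancer lines were seeded into 1536-well plates and, one day later, dosed by pin tool. Treatments were either a single drug or a fixed dose of an anchor drug with five library-drug doses (not always all listed) in √10 steps. After 5 days, nuclei were stained in a one-step fixation (final 0.05% Triton X-100, 1% formaldehyde, 1 ug/ml Hoechst) and counted on 4× images, and relative viability is the treated-to-vehicle nuclei ratio, as the median of duplicate plates.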

Adavosertib + Dasatinib = compound: C=CCn1c(=O)c2cnc(Nc3ccc(N4CCN(C)CC4)cc3)nc2n1-c1cccc(C(C)(C)O)n1 [Adavosertib] + Cc1nc(Nc2ncc(C(=O)Nc3c(C)cccc3Cl)s2)cc(N2CCN(CCO)CC2)n1 [Dasatinib] (partner 0.075 µM)
In short: as §1

Nelarabine + Foretinib = compound: COc1nc(N)nc2c1ncn2[C@@H]1O[C@H](CO)[C@@H](O)[C@@H]1O [Nelarabine] + COc1cc2c(Oc3ccc(NC(=O)C4(C(=O)Nc5ccc(F)cc5)CC4)cc3F)ccnc2cc1OCCCN1CCOCC1 [Foretinib] (partner 0.25 µM)
In short: as §1

Nelarabine + Phenformin = compound: COc1nc(N)nc2c1ncn2[C@@H]1O[C@H](CO)[C@@H](O)[C@@H]1O [Nelarabine] + N=C(N)NC(=N)NCCc1ccccc1 [Phenformin] (partner 250 µM)
In short: as §1

Cell Line	relative viability (Adavosertib + Alpelisib; first compound 0.01 µM)	relative viability (Adavosertib + Alpelisib; first compound 0.03162 µM)	relative viability (Adavosertib + Alpelisib; first compound 0.1 µM)	relative viability (Adavosertib + Alpelisib; first compound 0.3162 µM)	relative viability (Adavosertib + Dasatinib; first compound 0.01 µM)	relative viability (Adavosertib + Dasatinib; first compound 0.03162 µM)	relative viability (Adavosertib + Dasatinib; first compound 0.1 µM)	relative viability (Adavosertib + Dasatinib; first compound 0.3162 µM)	relative viability (Nelarabine + Foretinib; first compound 0.01 µM)	relative viability (Nelarabine + Foretinib; first compound 0.03162 µM)	relative viability (Nelarabine + Foretinib; first compound 0.1 µM)	relative viability (Nelarabine + Foretinib; first compound 0.3162 µM)	relative viability (Nelarabine + Foretinib; first compound 1 µM)	relative viability (Nelarabine + Phenformin; first compound 0.01 µM)	relative viability (Nelarabine + Phenformin; first compound 0.03162 µM)	relative viability (Nelarabine + Phenformin; first compound 0.1 µM)	relative viability (Nelarabine + Phenformin; first compound 0.3162 µM)	relative viability (Nelarabine + Phenformin; first compound 1 µM)
HOP-62	0.924	1.02	1.14	0.955	0.693	0.678	0.644	0.661	1.08	1	1.12	1.05	1.05	0.787	0.508	0.696	0.777	0.667
NCI-H2228	0.839	0.694	0.829	0.343	0.536	0.492	0.475	0.265	0.977	1.02		0.956	0.86	0.434	0.244		0.345	0.293
SK-MES-1	0.956	0.844	0.924	0.618	0.334	0.392	0.27	0.193	1.07	0.932	0.946	0.949	1.18	0.705	0.658	0.643	0.757	0.684
NCI-H1755	0.983	0.859	0.856	0.868	0.406	0.424	0.447	0.384	0.939	0.82	0.928	1.05	1.01	0.63	0.548	0.547	0.659	0.619
NCI-H2126	0.75	0.767	0.675	0.752	0.602	0.619	0.564	0.561	1.24	1.13	1.18	1.41	1.08	0.593	0.545	0.51	0.508	0.517
NCI-H596	0.51	0.464	0.457	0.422	0.53	0.656	0.66	0.541	0.829	0.917	0.773	0.848	0.84	0.778	0.749	0.747	0.812	0.86
NCI-H1944	0.822	0.774	0.645	0.666	0.205	0.201	0.218	0.199	1.09	0.896	0.776	0.917	0.834	0.209	0.195	0.229	0.195	0.203
ABC-1	0.993	1.04	1.28	1.08	0.551	0.594	0.677	0.563	1.11	0.862	0.931	1.05	0.94	0.216	0.212	0.258	0.231	0.229
